Experimental data published in patent publication US20250003953A1, “Methods and Model Systems for Assessing Therapeutic Properties of Candidate Agents and Related Computer Readable Media and Systems” (The Regents of the University of California, priority 2021, published 2025).

Experiments:
[1] = tested on: H2030 (KRAS.G12C); assay: Mitochondrial content with Mitotracker Deep Red FM in long term drug tolerant line; type: cell-based, human; details: 30 day treatment, 10 uM; drug-persistent vs parental H2030
[2] = tested on: tumors from KRAS.G12C, EML4-ALK, and TH21 lung cancer patients; assay: GENEVA pools of PDX models, relative survival by genotype; type: in vivo, human; details: PDX GENEVA pool
Excerpt: Higher confidence metrics are noted in the dotted line, or Noise Corrected Algorithm results.
GENEVA pools of PDX models were created for a long term drug treatment assay. Tumors were implanted in vivo and in organoids, and tumors from KRAS.G12C, EML4-ALK, and TH21 lung cancer patients were drugged in GENEVA pools. Significant drug sensitivity was found in EML4-ALK patient greater than sensitivity of KRAS.G12C mutant tumors indicating EML4-ALK patient tumors would respond to a KRAS.G12C inhibitor (FIG. 9B).

[3] = tested on: KRAS.G12V cell line H441; assay: Lipid peroxidation by KRAS inhibitors in non-KRAS.G12C line; type: cell-based, human
Protocol: FIG. 7B plots gene expression of anti-ferroptotic genes for each cell line in response to increasing ARS1620 dosage.
Using a lipid peroxidation live cell probe, lipid peroxidation—one of the hallmark phenotypes of ferroptosis—was measured in response to ARS-1620 treatment.

[4] = tested on: KRAS.G12C lines in GENEVA pools; assay: GENEVA pool transcriptome changes in cells surviving drug treatment; type: cell-based, human
Protocol: Long-time course GENEVA pools were created to understand how ARS1620 achieved durable tumor regression in human cells. A seven day drug treatment regimen was conducted and transcriptome changes in surviving cells were analyzed.
For each cell line, single cell datasets were divided into two sub-datasets: vehicle treated and drug treated. Differential expression was calculated between two single-cell datasets using a two-sample t-test. A differential expression score was obtained for each gene from two-sample t-test output. All cell lines were repeated until done and all differential expression scores for genes were saved into aggregated differential expression tables by cell line. Cells were grouped according to their phenotypic sensitivity to the tested compound. For tested compounds, the genetic driver of the compound sensitivity was discovered as described previously herein. Using the genetic driver, cell lines were classified by presence or absence of the driver into two categories, sensitive vs non-sensitive. The differential expression matrix was grouped into sensitive and insensitive cell lines. z-scores for genes within each cell line were calculated, genes were grouped by gene sets from biological geneset databases curated from scientific literature, and two sample T-tests with grouped z-scores were performed. First, all differential expression scores were normalized to the same scale by z-score within each cell line. […] Summary statistics from each gene test were saved and the z-score difference was calculated. The biological mechanism of action of the molecule of interest was determined by rank ordering the median z score results from each geneset to determine the relative upregulation or downregulation of genesets in response to the compound.
Among this group of genes were FTH1 and FTL, the two components of the Ferritin Complex, which is responsible for sequestration of labile free iron. Using a lipid peroxidation live cell probe, lipid peroxidation—one of the hallmark phenotypes of ferroptosis—was measured in response to ARS-1620 treatment.

[5] = tested on: GENEVA cell pool of cell lines; assay: GENEVA cell pool drug sensitivity by relative cell counts from single-cell RNA sequencing; type: cell-based, human; details: pre/post drug treatment relative cell counts from GENEVA pools
Excerpt: This example is directed at discovery of genetic drivers of sensitivity to a drug compound by way of simultaneous inference of phenotype from a GENEVA cell pool. Long-duration growth balanced cell pools were created and subjected to drug treatment. After assignment to patient of origin and drug treatment condition using genetic demultiplexing using the method as described in Example 5 and sample hashing demultiplexing as described in Example 6, datasets were obtained with discrete numbers of cells in each drug treatment condition as evidenced in FIG. 2A,B,C,D,E,F. The relative number of viable cells remaining in each drug treatment condition for each cell type was counted and this drug sensitivity information was used as the response variable for a linear model. […]
The number of cells in each drug condition were counted according to the origin cell type. […]
fitness for cell type Ci against Drug Dx based on proportional representation was calculated as: […]
For each drug or vehicle Dx, the total number of cells was counted in each condition, the geometric mean of the total cell counts was calculated, and the total number of cells in each condition was divided by the geometric mean of the cell counts to obtain a normalization ratio. […]
For each of these fitness calculations, the relative fitness was calculated as: […]

C=CC(=O)N1CCN(c2ncnc3c(F)c(-c4c(O)cccc4F)c(Cl)cc23)CC1 [ARS1620]
mitochondrial content after long term treatment [1]: mitochondria are significantly ablated | relative survival of genotype under treatment or vehicle [2]: EML4-ALK as the most drug sensitive tumor type | lipid peroxidation [3]: this effect was significantly muted | percentage of mitochondrial reads in surviving cell subpopulations ([4]; after drug treatment, within each cell line of the pool): significantly lower percentage of mitochondrial reads relative to overall reads | expression of anti-ferroptotic genes in surviving cells ([4]; long-term treatment, across KRAS.G12C lines): Consistently upregulated genes across cell lines were found to be involved in an anti-ferroptotic response mechanism | expression of mitochondrially encoded genes in surviving cells ([4]; seven day drug treatment regimen): Mitochondrially encoded genes were downregulated | relative sensitivity of individual cell types (most sensitive cell lines) [5]: KRAS.G12C mutant harboring
